Laboratory results as given in PMC5218480 (PLoS ONE, 2017).

Tested on: MV-4-11 cells
Assay: Gene expression microarray analysis (Affymetrix PrimeView) and GSEA
Type: cell-based, human
Parameters: RFU PODN (11730768_x_at) / Fold change /veh PODN (11730768_x_at) / RFU LINC00158 (11744669_a_at) / Fold change /veh LINC00158 (11744669_a_at) / RFU DUSP10 (11751237_a_at) / Fold change /veh DUSP10 (11751237_a_at) / RFU ID3 (11757404_x_at) / Fold change /veh ID3 (11757404_x_at) / RFU PLEKHG5 (11737974_s_at) / Fold change /veh PLEKHG5 (11737974_s_at) / RFU LRRC4B (11730491_at) / Fold change /veh LRRC4B (11730491_at) / RFU GIMAP4 (11747438_a_at) / Fold change /veh GIMAP4 (11747438_a_at) / RFU KRT8 (11758183_x_at) / Fold change /veh KRT8 (11758183_x_at) / RFU CNN1 (11734310_a_at) / Fold change /veh CNN1 (11734310_a_at) / RFU VPS37D (11726825_at) / Fold change /veh VPS37D (11726825_at) / RFU C10orf10 (11716522_x_at) / Fold change /veh C10orf10 (11716522_x_at) / RFU KIR2DL2 /// KIR2DL4 /// KIR2DL5A /// KIR2DL5B /// KIR2DS1 /// KIR2DS2 /// KIR2DS3 /// KIR2DS4 /// KIR3DL3 /// KIR3DL3 /// KIR3DS1 (11738374_at) / Fold change /veh KIR2DL2 /// KIR2DL4 /// KIR2DL5A /// KIR2DL5B /// KIR2DS1 /// KIR2DS2 /// KIR2DS3 /// KIR2DS4 /// KIR3DL3 /// KIR3DL3 /// KIR3DS1 (11738374_at) / RFU C1QL1 (11718748_at) / Fold change /veh C1QL1 (11718748_at) / RFU TMPRSS4 (11747572_a_at) / Fold change /veh TMPRSS4 (11747572_a_at) / RFU HAMP (11756126_x_at) / Fold change /veh HAMP (11756126_x_at) / RFU RNFT2 (11725882_a_at) / Fold change /veh RNFT2 (11725882_a_at) / RFU NR4A2 (11747474_a_at) / Fold change /veh NR4A2 (11747474_a_at) / RFU ABCC12 (11746883_a_at) / Fold change /veh ABCC12 (11746883_a_at) / RFU TMEM136 (11760407_x_at) / Fold change /veh TMEM136 (11760407_x_at) / RFU CLDN22 /// WWC2 (11732394_at) / Fold change /veh CLDN22 /// WWC2 (11732394_at) / RFU HLA-DPB1 (11760878_x_at) / Fold change /veh HLA-DPB1 (11760878_x_at) / RFU SPINT1 (11716480_a_at) / Fold change /veh SPINT1 (11716480_a_at) / RFU GAP43 (11754022_s_at) / Fold change /veh GAP43 (11754022_s_at) / RFU A4GNT (11735810_at) / Fold change /veh A4GNT (11735810_at) / RFU PRB3 (11715151_x_at) / Fold change /veh PRB3 (11715151_x_at) / RFU TUBB4B (11761932_at) / Fold change /veh TUBB4B (11761932_at) / RFU CAPN14 (11732068_a_at) / Fold change /veh CAPN14 (11732068_a_at) / RFU TMCC2 (11721928_a_at) / Fold change /veh TMCC2 (11721928_a_at) / RFU IRGQ (11745062_a_at) / Fold change /veh IRGQ (11745062_a_at) / RFU FAM174B (11720279_a_at) / Fold change /veh FAM174B (11720279_a_at) / RFU TMPRSS4 (11748680_a_at) / Fold change /veh TMPRSS4 (11748680_a_at) / RFU FAM212B (11763350_a_at) / Fold change /veh FAM212B (11763350_a_at) / RFU PLEKHG5 (11743358_a_at) / Fold change /veh PLEKHG5 (11743358_a_at) / RFU ZSCAN30 (11745921_a_at) / Fold change /veh ZSCAN30 (11745921_a_at) / RFU CMKLR1 (11741424_a_at) / Fold change /veh CMKLR1 (11741424_a_at) / RFU LOC101060620 /// MAPK8IP1 (11723275_at) / Fold change /veh LOC101060620 /// MAPK8IP1 (11723275_at) / RFU SPTSSB (11747773_x_at) / Fold change /veh SPTSSB (11747773_x_at) / RFU PRSS12 (11739890_at) / Fold change /veh PRSS12 (11739890_at) / RFU BIN1 (11741810_x_at) / Fold change /veh BIN1 (11741810_x_at) / RFU WNT11 (11732464_a_at) / Fold change /veh WNT11 (11732464_a_at) / RFU C10orf10 (11716521_a_at) / Fold change /veh C10orf10 (11716521_a_at) / RFU C5orf56 (11738089_at) / Fold change /veh C5orf56 (11738089_at) / RFU CYB561 (11721691_x_at) / Fold change /veh CYB561 (11721691_x_at) / RFU ANKRD19P (11752326_a_at) / Fold change /veh ANKRD19P (11752326_a_at) / RFU OR2T12 /// OR2T33 /// OR2T8 (11738714_s_at) / Fold change /veh OR2T12 /// OR2T33 /// OR2T8 (11738714_s_at) / RFU VCAN (11748164_a_at) / Fold change /veh VCAN (11748164_a_at) / RFU JSRP1 (11732532_at) / Fold change /veh JSRP1 (11732532_at) / RFU KRTAP10-11 (11738290_x_at) / Fold change /veh KRTAP10-11 (11738290_x_at) / RFU MYO3A (11730013_a_at) / Fold change /veh MYO3A (11730013_a_at) / RFU EBF3 (11725865_a_at) / Fold change /veh EBF3 (11725865_a_at) / RFU CAMK2N1 (11719241_x_at) / Fold change /veh CAMK2N1 (11719241_x_at) / RFU C5orf56 (11738088_a_at) / Fold change /veh C5orf56 (11738088_a_at) / RFU OLFML3 (11715873_a_at) / Fold change /veh OLFML3 (11715873_a_at) / RFU LOC100653217 /// NTM (11731650_a_at) / Fold change /veh LOC100653217 /// NTM (11731650_a_at) / RFU MAPK11 (11762145_a_at) / Fold change /veh MAPK11 (11762145_a_at) / RFU FIZ1 (11724087_x_at) / Fold change /veh FIZ1 (11724087_x_at) / RFU OASL (11726364_x_at) / Fold change /veh OASL (11726364_x_at) / RFU SOX15 (11748057_x_at) / Fold change /veh SOX15 (11748057_x_at) / RFU CD79A (11719716_a_at) / Fold change /veh CD79A (11719716_a_at) / RFU HIST1H1D (11736915_at) / Fold change /veh HIST1H1D (11736915_at) / RFU CASKIN2 (11723855_a_at) / Fold change /veh CASKIN2 (11723855_a_at) / RFU LOC730098 (11760151_x_at) / Fold change /veh LOC730098 (11760151_x_at) / RFU OR4N2 (11742367_at) / Fold change /veh OR4N2 (11742367_at) / RFU PRRT2 (11749266_a_at) / Fold change /veh PRRT2 (11749266_a_at) / RFU SNX32 (11753110_a_at) / Fold change /veh SNX32 (11753110_a_at) / RFU CDHR5 (11726645_a_at) / Fold change /veh CDHR5 (11726645_a_at) / RFU RCAN1 (11760418_a_at) / Fold change /veh RCAN1 (11760418_a_at) / RFU FAM167A (11723789_a_at) / Fold change /veh FAM167A (11723789_a_at) / RFU FAM26E (11764081_at) / Fold change /veh FAM26E (11764081_at) / RFU ISYNA1 (11749810_s_at) / Fold change /veh ISYNA1 (11749810_s_at) / RFU ACY1 (11761880_at) / Fold change /veh ACY1 (11761880_at) / RFU 11764098_at / Fold change /veh 11764098_at / RFU SAMD14 (11745864_x_at) / Fold change /veh SAMD14 (11745864_x_at) / RFU NPB (11741838_a_at) / Fold change /veh NPB (11741838_a_at) / RFU TMPRSS6 (11731388_a_at) / Fold change /veh TMPRSS6 (11731388_a_at) / RFU KRTAP10-2 (11738614_at) / Fold change /veh KRTAP10-2 (11738614_at) / RFU ARHGAP8 /// PRR5-ARHGAP8 (11727945_x_at) / Fold change /veh ARHGAP8 /// PRR5-ARHGAP8 (11727945_x_at) / RFU KRTAP5-7 /// NADSYN1 (11734609_at) / Fold change /veh KRTAP5-7 /// NADSYN1 (11734609_at) / RFU RASL12 (11751679_a_at) / Fold change /veh RASL12 (11751679_a_at) / RFU CDKN2B (11736163_a_at) / Fold change /veh CDKN2B (11736163_a_at) / RFU PRF1 (11729649_at) / Fold change /veh PRF1 (11729649_at) / RFU, ZNF638 /// ZNF638-IT1 / Fold change vs veh, ZNF638 /// ZNF638-IT1 / RFU, PANK3 / Fold change vs veh, PANK3 / RFU, SH3YL1 / Fold change vs veh, SH3YL1 / RFU, ZEB2 / Fold change vs veh, ZEB2 / RFU, NRIP1 / Fold change vs veh, NRIP1 / RFU, PTTG1IP / Fold change vs veh, PTTG1IP / RFU, CAPN2 / Fold change vs veh, CAPN2 / RFU, MED14 / Fold change vs veh, MED14 / RFU, SNORA58 / Fold change vs veh, SNORA58 / RFU, C1orf63 / Fold change vs veh, C1orf63 / RFU, LRRFIP1 / Fold change vs veh, LRRFIP1 / RFU, NDUFAF7 / Fold change vs veh, NDUFAF7 / RFU, SLC12A2 / Fold change vs veh, SLC12A2 / RFU, IBTK / Fold change vs veh, IBTK / RFU, ESF1 / Fold change vs veh, ESF1 / Fold change vs veh, TMEM50B / RFU, TAOK1 / Fold change vs veh, TAOK1 / RFU, ACBD3 / Fold change vs veh, ACBD3 / RFU, TMA16 / Fold change vs veh, TMA16 / RFU, RWDD3 / Fold change vs veh, RWDD3 / RFU, BCAT1 / Fold change vs veh, BCAT1 / RFU, EDEM3 / Fold change vs veh, EDEM3 / RFU, TMEM33 / Fold change vs veh, TMEM33 / RFU, WDR75 / Fold change vs veh, WDR75 / RFU, AHCTF1 / Fold change vs veh, AHCTF1 / RFU, TFRC / Fold change vs veh, TFRC / RFU, ZDHHC17 / Fold change vs veh, ZDHHC17 / RFU, NOM1 / Fold change vs veh, NOM1 / RFU, ARL8B / Fold change vs veh, ARL8B / RFU, ZBTB11 / Fold change vs veh, ZBTB11 / RFU, TAMM41 / Fold change vs veh, TAMM41 / RFU, KIAA1704 /// LOC100996395 / Fold change vs veh, KIAA1704 /// LOC100996395 / RFU, ING1 / Fold change vs veh, ING1 / RFU, TRMT61B / Fold change vs veh, TRMT61B / RFU, FUBP3 / Fold change vs veh, FUBP3 / RFU, TP53 / Fold change vs veh, TP53 / RFU, TNKS2 / Fold change vs veh, TNKS2 / RFU, ZFP14 / Fold change vs veh, ZFP14 / RFU, ACTR2 / Fold change vs veh, ACTR2 / RFU, PPP3R1 / Fold change vs veh, PPP3R1 / RFU, PIK3R1 / Fold change vs veh, PIK3R1 / RFU, HNRNPA1 / Fold change vs veh, HNRNPA1 / RFU, RNF170 / Fold change vs veh, RNF170 / RFU, ZNF28 / Fold change vs veh, ZNF28 / RFU, RNGTT / Fold change vs veh, RNGTT / RFU, OGT / Fold change vs veh, OGT / RFU, BRD1 / Fold change vs veh, BRD1 / RFU, MARS / Fold change vs veh, MARS / RFU, ZNF655 / Fold change vs veh, ZNF655 / RFU, FAHD1 / Fold change vs veh, FAHD1 / RFU, BDP1 / Fold change vs veh, BDP1 / RFU, LRRCC1 / Fold change vs veh, LRRCC1 / RFU, ARID1A / Fold change vs veh, ARID1A / RFU, ZNF146 / Fold change vs veh, ZNF146 / RFU, ZNF330 / Fold change vs veh, ZNF330 / RFU, GPN3 / Fold change vs veh, GPN3 / RFU, C9orf123 / Fold change vs veh, C9orf123 / RFU, N4BP2L2 / Fold change vs veh, N4BP2L2 / RFU, ARFIP1 / Fold change vs veh, ARFIP1 / RFU, FAM179B / Fold change vs veh, FAM179B / RFU, BCL10 / Fold change vs veh, BCL10 / RFU, UHRF1BP1L / Fold change vs veh, UHRF1BP1L / RFU, BET1 / Fold change vs veh, BET1 / RFU, CNOT2 / Fold change vs veh, CNOT2 / RFU, ZNF268 / Fold change vs veh, ZNF268 / Fold change vs veh, ZNF507 / RFU, DGCR2 / Fold change vs veh, DGCR2 / RFU, WDSUB1 / Fold change vs veh, WDSUB1 / Fold change vs veh, HSP90B1 /// MIR3652 / RFU, ADSS / Fold change vs veh, ADSS / RFU, GK / Fold change vs veh, GK / RFU, ZNF148 / Fold change vs veh, ZNF148 / RFU, TAF9 / Fold change vs veh, TAF9 / RFU, SLC1A5 / Fold change vs veh, SLC1A5 / RFU, SLMO2 / Fold change vs veh, SLMO2 / RFU, ABCC4 / Fold change vs veh, ABCC4 / RFU, LOC101060439 /// RAP1B / Fold change vs veh, LOC101060439 /// RAP1B / RFU, RFX7 / Fold change vs veh, RFX7 / RFU, GTPBP10 / Fold change vs veh, GTPBP10 / RFU, CNEP1R1 / Fold change vs veh, CNEP1R1 / RFU, BIVM-ERCC5 /// ERCC5 / Fold change vs veh, BIVM-ERCC5 /// ERCC5 / RFU, ILF3 / Fold change vs veh, ILF3 / RFU 11762660_at / Fold change /veh 11762660_at / RFU VCAN (11757783_s_at) / Fold change /veh VCAN (11757783_s_at) / RFU DDX43 (11728927_at) / Fold change /veh DDX43 (11728927_at) / RFU KRT8 (11758188_x_at) / Fold change /veh KRT8 (11758188_x_at) / RFU NKD1 (11759106_at) / Fold change /veh NKD1 (11759106_at) / RFU SRD5A1 (11742802_a_at) / Fold change /veh SRD5A1 (11742802_a_at) / RFU TPSAB1 /// TPSB2 (11721975_s_at) / Fold change /veh TPSAB1 /// TPSB2 (11721975_s_at) / RFU GSTM3 (11746129_a_at) / Fold change /veh GSTM3 (11746129_a_at) / RFU IL23R (11737362_x_at) / Fold change /veh IL23R (11737362_x_at) / RFU TMEM51 (11727254_a_at) / Fold change /veh TMEM51 (11727254_a_at) / RFU PIWIL2 (11732686_x_at) / Fold change /veh PIWIL2 (11732686_x_at) / RFU ORM1 (11744905_x_at) / Fold change /veh ORM1 (11744905_x_at) / RFU CCDC152 (11743942_at) / Fold change /veh CCDC152 (11743942_at) / RFU ECM1 (11717891_a_at) / Fold change /veh ECM1 (11717891_a_at) / RFU IL23R (11748794_a_at) / Fold change /veh IL23R (11748794_a_at) / RFU TNFAIP8L3 (11732012_x_at) / Fold change /veh TNFAIP8L3 (11732012_x_at) / RFU MBOAT4 (11741988_at) / Fold change /veh MBOAT4 (11741988_at) / RFU 11764193_at / Fold change /veh 11764193_at / RFU TMEM53 (11763286_at) / Fold change /veh TMEM53 (11763286_at) / RFU MAGEB2 (11727129_at) / Fold change /veh MAGEB2 (11727129_at) / RFU TMEM200A (11744735_a_at) / Fold change /veh TMEM200A (11744735_a_at) / RFU CCDC152 (11751479_a_at) / Fold change /veh CCDC152 (11751479_a_at) / RFU FAM211A (11726209_a_at) / Fold change /veh FAM211A (11726209_a_at) / RFU RGS16 (11746705_a_at) / Fold change /veh RGS16 (11746705_a_at) / RFU VCAN (11755009_s_at) / Fold change /veh VCAN (11755009_s_at) / RFU RHOB (11743442_s_at) / Fold change /veh RHOB (11743442_s_at) / RFU RGS16 (11720943_a_at) / Fold change /veh RGS16 (11720943_a_at) / RFU RGS16 (11720944_at) / Fold change /veh RGS16 (11720944_at) / RFU, VPS4B / Fold change vs veh, VPS4B / RFU, CREB1 / Fold change vs veh, CREB1 / RFU, DNAJC13 / Fold change vs veh, DNAJC13 / RFU, GNAQ / Fold change vs veh, GNAQ / RFU, CDK5R1 / Fold change vs veh, CDK5R1 / RFU, ZRANB3 / Fold change vs veh, ZRANB3 / RFU, CUL4A / Fold change vs veh, CUL4A / RFU, CCNY / Fold change vs veh, CCNY / RFU, UFL1 / Fold change vs veh, UFL1 / RFU, COG3 / Fold change vs veh, COG3 / RFU, DIAPH2 / Fold change vs veh, DIAPH2 / RFU, SKA2 / Fold change vs veh, SKA2 / RFU, AFF3 / Fold change vs veh, AFF3 / RFU, LMF1 / Fold change vs veh, LMF1 / RFU, IPO11 / Fold change vs veh, IPO11 / RFU, DFFB / Fold change vs veh, DFFB / RFU, FOXP1 / Fold change vs veh, FOXP1 / RFU, CARD8 / Fold change vs veh, CARD8 / RFU, STRN3 / Fold change vs veh, STRN3 / RFU, ADK / Fold change vs veh, ADK / RFU, RASSF2 / Fold change vs veh, RASSF2 / RFU, WIPF1 / Fold change vs veh, WIPF1 / RFU, LARP1B / Fold change vs veh, LARP1B / RFU, RASA1 / Fold change vs veh, RASA1 / RFU, RB1 / Fold change vs veh, RB1 / RFU, PPFIA1 / Fold change vs veh, PPFIA1 / RFU, MAT2A / Fold change vs veh, MAT2A / RFU, CCT5 / Fold change vs veh, CCT5 / RFU, WDR92 / Fold change vs veh, WDR92 / RFU, CUX1 / Fold change vs veh, CUX1 / RFU, TTC7A / Fold change vs veh, TTC7A / RFU, TMEM135 / Fold change vs veh, TMEM135 / RFU, DEPTOR / Fold change vs veh, DEPTOR / RFU, CPM / Fold change vs veh, CPM / RFU, DNAJB6 / Fold change vs veh, DNAJB6 / RFU, CACNA2D3 / Fold change vs veh, CACNA2D3 / RFU, DTX4 / Fold change vs veh, DTX4 / RFU, TFCP2 / Fold change vs veh, TFCP2 / RFU, GMCL1 /// GMCL1P1 / Fold change vs veh, GMCL1 /// GMCL1P1 / RFU, AEBP2 / Fold change vs veh, AEBP2 / RFU, SNHG1 /// SNORD22 /// SNORD25 /// SNORD26 /// SNORD27 /// SNORD28 /// SNORD29 /// SNORD31 / Fold change vs veh, SNHG1 /// SNORD22 /// SNORD25 /// SNORD26 /// SNORD27 /// SNORD28 /// SNORD29 /// SNORD31 / Fold change (Aza/veh), C12orf56 (ProbeSet 11735607_a_at) / Fold change (ACY-1035/veh), C12orf56 (ProbeSet 11735607_a_at) / Fold change (Aza/veh), FGFR1OP (ProbeSet 11751329_s_at) / Fold change (ACY-1035/veh), FGFR1OP (ProbeSet 11751329_s_at) / Fold change (Aza/veh), VPS36 (ProbeSet 11739960_a_at) / Fold change (ACY-1035/veh), VPS36 (ProbeSet 11739960_a_at) / RFU SYPL1 (11715823_x_at) / Fold change /veh SYPL1 (11715823_x_at) / RFU IGFBP7 (11715501_s_at) / Fold change /veh IGFBP7 (11715501_s_at) / RFU REEP3 (11722064_at) / Fold change /veh REEP3 (11722064_at) / RFU IGLL1 (11728026_x_at) / Fold change /veh IGLL1 (11728026_x_at): dose or concentration left out as unconfirmed
Conditions: ProbeSet 11757268_x_at; LIST B

**Q.** For Nc1ncn([C@@H]2O[C@H](CO)[C@@H](O)[C@H]2O)c(=O)n1 [azacitidine], which “RFU, HNRNPA1” value is on record?
**A.** The value was 4469.53 RFU.
